Biological target: SMARCA2 (Homo sapiens, UniProt P51531)
Experiment: MSD SMARCA2 degradation in NCI-H1299 cell line (24 h)
Type: cell-based
Set-up: HC: NCI-H1299 cells treated with DMSO; host or cells: NCI-H1299
Details: for Dmax: NCI-H1299, NCI-H1299 cells; for DC50: NCI-H1299 cells, read-out: SMARCA2 MSD H1299 degradation 24 h: External Abs-DC50
Method in brief: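 SMARCA2 measured by MSD electrochemiluminescence (primary 0.3 ug/ml, secondary 1 ug/ml) on lysates from NCI-H1299 cells exposed to compounds for 24 h across nine 3-fold dilutions. Signal scaled from A2780 cells (no SMARCA2) to DMSO-treated H1299 controls, and maximal degradation after 24 h reported in letter categories.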

Sequence of SMARCA2 (P51531 whole entry): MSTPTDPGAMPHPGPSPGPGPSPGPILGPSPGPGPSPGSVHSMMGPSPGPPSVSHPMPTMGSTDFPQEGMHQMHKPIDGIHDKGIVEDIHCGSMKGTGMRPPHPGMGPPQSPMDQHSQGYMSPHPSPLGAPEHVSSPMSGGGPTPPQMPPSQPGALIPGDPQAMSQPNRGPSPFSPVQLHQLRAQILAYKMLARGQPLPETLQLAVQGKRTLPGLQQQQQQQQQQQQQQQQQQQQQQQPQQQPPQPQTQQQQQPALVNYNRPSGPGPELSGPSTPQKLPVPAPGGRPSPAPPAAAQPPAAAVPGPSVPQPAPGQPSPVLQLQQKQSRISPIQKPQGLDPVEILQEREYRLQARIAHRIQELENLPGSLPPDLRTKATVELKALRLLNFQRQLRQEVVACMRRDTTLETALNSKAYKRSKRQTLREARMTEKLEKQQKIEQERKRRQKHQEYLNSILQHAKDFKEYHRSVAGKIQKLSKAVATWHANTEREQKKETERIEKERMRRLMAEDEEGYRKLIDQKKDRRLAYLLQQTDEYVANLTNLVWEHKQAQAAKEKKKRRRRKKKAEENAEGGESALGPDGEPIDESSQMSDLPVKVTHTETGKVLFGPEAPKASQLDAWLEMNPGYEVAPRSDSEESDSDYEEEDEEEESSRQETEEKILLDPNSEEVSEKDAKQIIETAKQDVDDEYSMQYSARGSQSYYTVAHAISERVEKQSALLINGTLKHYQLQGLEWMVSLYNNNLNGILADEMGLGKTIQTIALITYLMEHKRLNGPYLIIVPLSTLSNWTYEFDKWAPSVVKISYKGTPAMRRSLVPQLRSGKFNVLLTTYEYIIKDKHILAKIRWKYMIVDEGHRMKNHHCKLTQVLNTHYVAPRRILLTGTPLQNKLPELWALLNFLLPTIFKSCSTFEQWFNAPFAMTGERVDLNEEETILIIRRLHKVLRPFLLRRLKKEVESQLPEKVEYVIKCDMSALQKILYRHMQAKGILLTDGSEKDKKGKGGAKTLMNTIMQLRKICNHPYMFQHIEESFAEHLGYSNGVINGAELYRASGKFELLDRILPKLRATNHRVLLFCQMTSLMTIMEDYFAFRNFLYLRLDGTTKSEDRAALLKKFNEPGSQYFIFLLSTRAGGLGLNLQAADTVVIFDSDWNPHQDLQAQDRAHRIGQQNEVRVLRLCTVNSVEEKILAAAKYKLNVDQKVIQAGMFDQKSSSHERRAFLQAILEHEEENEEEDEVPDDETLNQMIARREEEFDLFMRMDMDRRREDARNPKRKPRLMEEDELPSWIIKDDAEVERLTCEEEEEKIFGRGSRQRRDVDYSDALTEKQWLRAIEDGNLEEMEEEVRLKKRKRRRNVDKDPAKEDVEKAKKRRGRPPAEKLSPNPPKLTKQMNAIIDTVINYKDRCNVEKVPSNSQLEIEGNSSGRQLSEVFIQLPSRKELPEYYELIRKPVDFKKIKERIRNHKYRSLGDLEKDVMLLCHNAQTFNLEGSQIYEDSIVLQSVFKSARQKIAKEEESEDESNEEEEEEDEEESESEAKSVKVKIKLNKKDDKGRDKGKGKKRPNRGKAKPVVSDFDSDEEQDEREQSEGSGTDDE

Dmax	DC50	SMILES
< 50%	> 1000 nM	COc1cc(C(=O)NCCCCCCCCCN2CCN(Cc3ccc(-c4cc(-c5ccccc5O)nnc4N)cc3)CC2)ccc1NC(=O)[C@@H]1N[C@@H](CC(C)(C)C)[C@](C#N)(c2ccc(Cl)cc2F)[C@H]1c1cccc(Cl)c1F [I-233, (2R,3S,4R,5S)—N-[4-[9-[4-[[4-[3-amino-6-(2-hydroxyphenyl)pyridazin-4-yl]phenyl]methyl]piperazin-1-yl]nonylcarbamoyl]-2-methoxy-phenyl]-3-(3-chloro-2-fluoro-phenyl)-4-(4-chloro-2-fluoro-phenyl)-4-cyano-5-(2,2-dimethylpropyl)pyrrolidine-2-carboxamide]
> 90%	100 to 500 nM	Cn1c(=O)n(C2CCC(=O)NC2=O)c2cccc(CCCCCCCCCN3CCC(Cn4cc(-c5cc(-c6ccccc6O)nnc5N)cn4)CC3)c21 (stereo not shown) [I-151]
< 50%	> 1000 nM	Cn1c(=O)n(C2CCC(=O)NC2=O)c2ccc(CCCCCCCCOc3cccc(CN4CCN(c5cc(-c6ccccc6O)nnc5N)CC4)c3)cc21 (stereo not shown) [I-142]
50 to 70%	> 1000 nM	Cn1c(=O)n(C2CCC(=O)NC2=O)c2cccc(CCCCCCCOc3ccc(CN4CCN(c5cc(-c6ccccc6O)nnc5N)CC4)cc3)c21 (stereo not shown) [I-94]
	> 1000 nM	CC(c1ccc(C(=O)NCCOCCOCCOCCOCCOCCCc2ccc3c(c2)n(C)c(=O)n3C2CCC(=O)NC2=O)cc1)n1cc(-c2cc(-c3ccccc3O)nnc2N)cn1 (stereo not shown) [I-14]
< 50%	> 1000 nM	CN(CCCCc1ccc2c(c1)n(C)c(=O)n2C1CCC(=O)NC1=O)Cc1ccc(N2CCN(c3cc(-c4ccccc4O)nnc3N)CC2)cc1 (stereo not shown) [I-122]
	> 1000 nM	Cc1ncsc1-c1ccc(CNC(=O)[C@@H]2C[C@@H](O)CN2C(=O)[C@@H](NC(=O)COCCOCCOCCOCCOCCOCCNC(=O)CCCCCCCCOc2ccnc(N3C[C@H]4C[C@@H]3CN4/C=C/C(=O)c3ccccc3O)c2)C(C)(C)C)cc1 [I-221]
70 to 90%	100 to 500 nM	Cn1c(=O)n(C2CCC(=O)NC2=O)c2ccc(CN3CC[C@@H](OCCCN4CCN(Cc5ccc(-c6cc(-c7ccccc7O)nnc6N)cc5)CC4)C3)cc21 (stereo partly shown) [I-157]
< 50%	> 1000 nM	Cn1c(=O)n(C2CCC(=O)NC2=O)c2ccc(CCCCCCCOc3ccc(CN4CCN(c5cc(-c6ccccc6O)nnc5N)CC4)cc3)cc21 (stereo not shown) [I-87]
< 50%	> 1000 nM	Cn1c(=O)n(C2CCC(=O)NC2=O)c2ccc(C#CCOCCOCCN3CCN(Cc4ccc(-c5cc(-c6ccccc6O)nnc5N)cc4)CC3)cc21 (stereo not shown) [I-137]
	> 1000 nM	Cc1ncsc1-c1ccc(CNC(=O)[C@@H]2C[C@@H](O)CN2C(=O)[C@@H](NC(=O)COCCOCCOCCOCCOCCOCCNC(=O)CCCCCCCCOc2ccc(N3C[C@H]4C[C@@H]3CN4/C=C/C(=O)c3ccccc3O)nc2)C(C)(C)C)cc1 [I-229]
< 50%	> 1000 nM	Cn1c(=O)n(C2CCC(=O)NC2=O)c2cccc(CCCCCCOc3ccc(CN4CCN(c5cc(-c6ccccc6O)nnc5N)CC4)cc3)c21 (stereo not shown) [I-93]
50 to 70%	> 1000 nM	Cn1c(=O)n(C2CCC(=O)NC2=O)c2ccc(CCCCCCCCCCOc3cccc(CN4CCN(c5cc(-c6ccccc6O)nnc5N)CC4)c3)cc21 (stereo not shown) [I-144]
	> 1000 nM	O=C(CCCCCCCCOc1ccnc(N2C[C@H]3C[C@@H]2CN3/C=C/C(=O)c2ccccc2O)c1)NCCOCCOCCNc1cccc2c1C(=O)N(C1CCC(=O)NC1=O)C2=O (stereo partly shown) [I-23]
< 50%	> 1000 nM	COc1cc(C(=O)NCCCCCCCCCNCc2ccc(N3CCN(c4cc(-c5ccccc5O)nnc4N)CC3)cc2)ccc1NC(=O)[C@@H]1N[C@@H](CC(C)(C)C)[C@](C#N)(c2ccc(Cl)cc2F)[C@H]1c1cccc(Cl)c1F [I-235]
50 to 70%	100 to 500 nM	Cn1c(=O)n(C2CCC(=O)NC2=O)c2cccc(CCCOCCCCN3CCN(Cc4ccc(-c5cc(-c6ccccc6O)nnc5N)cc4)CC3)c21 (stereo not shown) [I-155]
50 to 70%	> 1000 nM	CN[C@@H](C)C(=O)N[C@H](C(=O)N1CCC[C@H]1c1nc(C(=O)c2cccc(OCCOCCOCCNCc3ccc(-c4cc(-c5ccccc5O)nnc4N)cc3)c2)cs1)C1CCCCC1 [I-198, (S)—N—((S)-2-((S)-2-(4-(3-(2-(2-(2-((4-(3-amino-6-(2-hydroxyphenyl)pyridazin-4-yl)benzyl)amino)ethoxy)ethoxy)ethoxy)benzoyl)thiazol-2-yl)pyrrolidin-1-yl)-1-cyclohexyl-2-oxoethyl)-2-(methylamino)propanamide]
> 90%	< 100 nM	Cn1c(=O)n(C2CCC(=O)NC2=O)c2cccc(CCCN3CCC(n4cc(-c5cc(-c6ccccc6O)nnc5N)cn4)CC3)c21 (stereo not shown) [I-174, 3-[4-[3-[4-[4-[3-amino-6-(2-hydroxyphenyl)pyridazin-4-yl]pyrazol-1-yl]-1-piperidyl]propyl]-3-methyl-2-oxo-benzimidazol-1-yl]piperidine-2,6-dione]
70 to 90%	100 to 500 nM	Cn1c(=O)n(C2CCC(=O)NC2=O)c2ccc(CCCCCCCCN3CCC(Cn4cc(-c5cc(-c6ccccc6O)nnc5N)cn4)CC3)cc21 (stereo not shown) [I-147]
< 50%	> 1000 nM	CN(CCCOCCCc1cccc2c1n(C)c(=O)n2C1CCC(=O)NC1=O)Cc1ccc(N2CCN(c3cc(-c4ccccc4O)nnc3N)CC2)cc1 (stereo not shown) [I-112]
< 50%	> 1000 nM	Cn1c(=O)n(C2CCC(=O)NC2=O)c2cccc(C#CCCCCCCc3cn(Cc4cccc(N5C[C@H]6C[C@@H]5CN6/C=C/C(=O)c5ccccc5O)n4)nn3)c21 (stereo partly shown) [I-68]
< 50%	> 1000 nM	Cn1c(=O)n(C2CCC(=O)NC2=O)c2ccc(C#CCCc3cn(Cc4cccc(N5C[C@H]6C[C@@H]5CN6/C=C/C(=O)c5ccccc5O)n4)nn3)cc21 (stereo partly shown) [I-59]
< 50%	> 1000 nM	Cn1c(=O)n(C2CCC(=O)NC2=O)c2ccc(CNCCc3cn(Cc4cccc(N5C[C@H]6C[C@@H]5CN6/C=C/C(=O)c5ccccc5O)n4)nn3)cc21 (stereo partly shown) [I-73]
> 90%	< 100 nM	Cn1c(=O)n(C2CCC(=O)NC2=O)c2cccc(CCCN3CCC(Cn4cc(-c5cc(-c6ccccc6O)nnc5N)cn4)CC3)c21 (stereo not shown) [I-194]
< 50%	> 1000 nM	Cn1c(=O)n(C2CCC(=O)NC2=O)c2cccc(CCCNCc3cn(Cc4cccc(N5C[C@H]6C[C@@H]5CN6/C=C/C(=O)c5ccccc5O)n4)nn3)c21 (stereo partly shown) [I-28]

SMILES	Dmax	DC50
CN(Cc1ccc2c(c1)n(C)c(=O)n2C1CCC(=O)NC1=O)C1CCN(Cc2cnc(N3C4CCC3CN(c3cc(-c5ccccc5O)nnc3N)C4)nc2)CC1 (stereo not shown) [I-164, 3-(5-(((1-((2-(3-(3-amino-6-(2-hydroxyphenyl)pyridazin-4-yl)-3,8-diazabicyclo[3.2.1]octan-8-yl)pyrimidin-5-yl)methyl)piperidin-4-yl)(methyl)amino)methyl)-3-methyl-2-oxo-2,3-dihydro-1H-benzo[d]imidazol-1-yl)piperidine-2,6-dione hydrogen chloride]	> 90%	< 100 nM
Cn1c(=O)n(C2CCC(=O)NC2=O)c2ccc(CN3CCN(Cc4cnc(N5C6CCC5CN(c5cc(-c7ccccc7O)nnc5N)C6)nc4)CC3)cc21 (stereo not shown) [I-163]	< 50%	> 1000 nM
Cn1c(=O)n(C2CCC(=O)NC2=O)c2ccc(CN3CC4(CCN(Cc5cnc(N6C7CCC6CN(c6cc(-c8ccccc8O)nnc6N)C7)nc5)CC4)C3)cc21 (stereo not shown) [I-166]	> 90%	< 100 nM

— US12624044B2, “SMARCA degraders and uses thereof” (Kymera Therapeutics, Inc., priority 2019, dated 2026)
